Measurements published in patent publication US20260297129A1, “PEPTIDES AS SELECTIVE IL-23 RECEPTOR INHIBITORS” (SANOFI, priority 2023, published 2026).
Values after ≈ are worked out from the molar mass of the structure shown. Like-named read-outs stand apart in the source and are kept apart here. Numbered stars: 1 amine (or outer) side, 2 acyl side, 3 side chain; on linkers, the order of the positions; unused ones are H or OH. Bridge positions count the residues as written; N and C are the ends. Square brackets hold non-standard residues; d marks the D form. Peptide text beside a SMILES is read from it. * marks the point of attachment. Lys(Me,(CH2)4NMe(CH2)4CO) = CN(CCCCC(=O)[*:3])CCCCN(C)CCCC[C@H](N[*:1])C(=O)[*:2]; Trp(7-Me) = Cc1cccc2c(C[C@H](N)C(=O)O)c[nH]c12; NH(2-(3-pyridyl)ethyl) = c1cncc(CCN*)c1; Sebacoyl = O=C(CCCCCCCCC(=O)[*:2])[*:1]; NH(CH2)9CO = O=C(CCCCCCCCCN[*:1])[*:2]; 2Nal = N[C@@H](Cc1ccc2ccccc2c1)C(=O)O; X4 = O=C(CCCCCCCCCCCCCCCN[*:1])[*:2]; 3Pal = N[C@@H](Cc1cccnc1)C(=O)O; Lys(Me) = CNCCCC[C@H](N)C(=O)O; Thp = NC1(C(=O)O)CCOCC1; Me2NCH2CH2 = CN(C)CC*; Aib = CC(C)(N)C(=O)O; Aoc = NCCCCCCCC(=O)O; Sar = CNCC(=O)O

Key:
[1] = Solubility of peptide compounds in buffer formulations (Table 5); type: physicochemical; settings: target 1 mg/ml
Summary of the method: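 Solubility was quantified by UHPLC-UV, comparing 1:10-diluted filtrate peak areas with a DMSO reference standard and correcting for extinction coefficients. Samples were prepared from dried DMSO stock at 1 mg/mL nominal in pH 1.2 HCl, pH 6.5 or pH 7.4 phosphate (50 mM), and agitated 2 h.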

[2] = tested on: IL-23 induced STAT3 signaling (IL-23 receptor) in HEK-Blue IL-23 cells; assay: Inhibition of IL-23 induced STAT3 signaling in HEK-Blue IL-23 cells, SEAP reporter (Table 9); type: cell-based; settings: human IL23 0.25 ng/ml, overnight, read-out: Inhibition of IL-23 induced pSTAT3 (IC50 nM)
Summary of the method: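 STAT3-driven SEAP output measured at OD 620–655 nm after 45 min QUANTI-Blue development of supernatant, with dose-response fits. Peptides were given 60 min ahead of 0.25 ng/ml (final) human IL-23, followed by overnight culture at 37 °C; 10,000 HEK-Blue IL-23 cells per well.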

[3] = Protease stability in simulated intestinal fluids (FaSSIF) (Table 7); type: in vitro ADME; settings: fassif with pancreatin, 37° C.; for remaining at 1 h, 1 µM: 60 min, read-out: Remaining percentage of peptide compound, FaSSIF 60 (min); for remaining at 2 h, 1 µM: 120 min, read-out: Remaining percentage of peptide compound, FaSSIF 120 (min); for remaining at 4 h, 1 µM: 240 min, read-out: Remaining percentage of peptide compound, FaSSIF 240 (min)
Summary of the method: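 Percent parent remaining was derived from LC-MS/MS peak areas normalised to time 0, set at 100%. Sampling at 0, 60, 120 and 240 min, quenched in ethanol with 0.1% HCOOH. Final peptide 1 μM, 37° C, SIF containing pancreatin.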

human IL-23R = target: T1, human IL-23R (Homo sapiens, UniProt Q5VWK5); assay: Inhibition of IL-23 binding to IL-23R as measured by ELISA (Table 8); settings: human IL23 coated 1 μg/ml; human IL-23R-Fc 0.1 μg/ml; 60 min; read-out: Human ELISA IL23/IL23R IC50
T1 sequence (Q5VWK5 24-353 limits assumed): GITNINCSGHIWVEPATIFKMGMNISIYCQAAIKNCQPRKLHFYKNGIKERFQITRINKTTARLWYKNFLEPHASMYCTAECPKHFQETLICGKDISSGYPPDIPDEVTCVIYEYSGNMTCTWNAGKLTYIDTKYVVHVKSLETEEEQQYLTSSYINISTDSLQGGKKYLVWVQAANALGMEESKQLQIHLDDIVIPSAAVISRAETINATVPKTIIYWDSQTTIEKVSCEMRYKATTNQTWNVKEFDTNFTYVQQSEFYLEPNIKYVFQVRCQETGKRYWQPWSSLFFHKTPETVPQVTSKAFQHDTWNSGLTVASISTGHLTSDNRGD
Experimental: Antagonism of compounds for human interleukin-23 receptor inhibitors, was determined by an ELISA assay.
A 384-well plate was coated with 50 μl/well of human IL23 at a final concentration of 1 μg/ml and incubated overnight at 4° C. The wells were washed 3 times with 80 μl wash buffer and blocked with 80 μl blocking buffer for 60 minutes at room temperature and washed again. 20 μl of serially diluted test peptides was added to each well and subsequently 20 μl of recombinant human IL-23R-Fc chimera at final concentration of 0.1 μg/ml. The plate was incubated for 60 minutes at room temperature. After the wells were washed, bound IL23R-Fc was detected with goat anti-hu-IgG1-HRP antibody. Signals were visualized with QUANTABLU fluorogenic peroxidase substrate.

[4] = Protease stability in simulated gastric fluids (FaSSGF) (Table 7); type: in vitro ADME; settings: fassgf with pepsin, 60 min, 37° C., read-out: Remaining percentage of peptide compound, FaSSGF 60 (min)
Summary of the method: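 Peptides at 1 μM final were incubated at 37 °C in simulated gastric fluid with pepsin (320 mg per 100 mL SGF concentrate). Samples were quenched with ethanol (0.1% HCOOH) at 0, 60, 120 and 240 min and analysed by LC-MS/MS. Percent remaining is the peak area relative to T0 (100%).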

[5] = Buffer pH 1.1 (head; method: 50 mM HCl pH 1.2), 2 h agitation, read-out: Solubility, Buffer pH 1.1
[6] = aqueous buffer, 50 mM phosphate buffer pH 6.5, 2 h agitation, read-out: Solubility, Buffer pH 6.5
[7] = aqueous buffer, 50 mM phosphate buffer pH 7.4, 2 h agitation, read-out: Solubility, Buffer pH 7.4

| SMILES | solubility at 2 h [1, 5] | solubility at 2 h [1, 6] | solubility at 2 h [1, 7] | IC50 [2] | remaining at 1 h, 1 µM [3] | remaining at 2 h, 1 µM [3] | remaining at 4 h, 1 µM [3] | IC50 (human IL-23R) | remaining at 1 h, 1 µM [4] |
| --- | --- | --- | --- | --- | --- | --- | --- | --- | --- |
| Cc1cccc2c(C[C@@H]3NC(=O)CCCCCCCNC(=O)CC[C@@H](C(=O)N[C@@H](CC(N)=O)C(=O)N[C@@H](Cc4cccnc4)C(=O)N(C)CC(N)=O)NC(=O)C(C)(C)NC(=O)[C@H](Cc4ccc5ccccc5c4)NC(=O)[C@H](Cc4ccc(OCCN(C)C)cc4)NC(=O)C4(CCOCC4)NC(=O)[C@H](CCC(N)=O)NC3=O)c[nH]c12 [compound 6] ([Aoc][Trp(7-Me)]Q[Thp]Y(Me2NCH2CH2)[2Nal][Aib]EN[3Pal][Sar]-NH2; lactam N-8) | ≥ 1.24 mg/mL | ≥ 1.04 mg/mL | ≥ 1.09 mg/mL | 4.77 nM | 86% | 77% | 77% | 0.67 nM | 88% |
| Cc1cccc2c(C[C@@H]3NC(=O)CCCCCCCCC(=O)N(C)CCCC[C@@H](C(=O)N[C@@H](CC(N)=O)C(=O)N[C@@H](Cc4cccnc4)C(=O)N(C)CC(N)=O)NC(=O)C(C)(C)NC(=O)[C@H](Cc4ccc5ccccc5c4)NC(=O)[C@H](Cc4ccc(OCCN(C)C)cc4)NC(=O)C4(CCOCC4)NC(=O)[C@H](CCC(N)=O)NC3=O)c[nH]c12 [compound 19] ([Trp(7-Me)]Q[Thp]Y(Me2NCH2CH2)[2Nal][Aib][Lys(Me)]N[3Pal][Sar]-NH2; linker N-7 via Sebacoyl) | ≥ 1.39 mg/mL | 0.12 mg/mL (≈ 73.6 µM) | 0.08 mg/mL (≈ 49.1 µM) | 0.24 nM | 80% | 78% | 74% | 0.63 nM | 97% |
| Cc1cccc2c(C[C@@H]3NC(=O)CCCCCCCCCCCCCCCNC(=O)CC[C@@H](C(=O)N[C@@H](CC(N)=O)C(=O)N[C@@H](Cc4cccnc4)C(=O)N(C)CC(N)=O)NC(=O)C(C)(C)NC(=O)[C@H](Cc4ccc5ccccc5c4)NC(=O)[C@H](Cc4ccc(OCCN(C)C)cc4)NC(=O)C4(CCOCC4)NC(=O)[C@H](CCC(N)=O)NC3=O)c[nH]c12 [compound 3] ([X4][Trp(7-Me)]Q[Thp]Y(Me2NCH2CH2)[2Nal][Aib]EN[3Pal][Sar]-NH2; lactam N-8) | ≥ 0.99 mg/mL | < 0.01 mg/mL | < 0.01 mg/mL | 9.92 nM | 84% | 81% | 81% | 1.33 nM | 71% |
| Cc1cccc2c(C[C@@H]3NC(=O)CCCCN(C)CCCCN(C)CCCC[C@@H](C(=O)NCC(=O)NCCc4cccnc4)NC(=O)C(C)(C)NC(=O)[C@H](Cc4ccc5ccccc5c4)NC(=O)[C@H](Cc4ccc(OCCN(C)C)cc4)NC(=O)C4(CCOCC4)NC(=O)[C@H](CCC(N)=O)NC3=O)c[nH]c12 [compound 24] ([Trp(7-Me)]Q[Thp]Y(Me2NCH2CH2)[2Nal][Aib][Lys(Me,(CH2)4NMe(CH2)4CO)]G-{NH(2-(3-pyridyl)ethyl)}; lactam N-7) | ≥ 0.99 mg/mL | ≥ 0.9 mg/mL | ≥ 0.88 mg/mL | 6.95 nM |  |  |  | 0.84 nM |  |
| Cc1cccc2c(C[C@@H]3NC(=O)CCCCCCCCCNC(=O)CC[C@@H](C(=O)N[C@@H](CC(N)=O)C(=O)N[C@@H](Cc4cccnc4)C(=O)N(C)CC(N)=O)NC(=O)C(C)(C)NC(=O)[C@H](Cc4ccc5ccccc5c4)NC(=O)[C@H](Cc4ccc(OCCN(C)C)cc4)NC(=O)C4(CCOCC4)NC(=O)[C@H](CCC(N)=O)NC3=O)c[nH]c12 [compound 5] ([NH(CH2)9CO][Trp(7-Me)]Q[Thp]Y(Me2NCH2CH2)[2Nal][Aib]EN[3Pal][Sar]-NH2; lactam N-8) | ≥ 1.01 mg/mL | 0.35 mg/mL (≈ 218 µM) | 0.17 mg/mL (≈ 106 µM) | 0.26 nM | 77% | 74% | 70% | 0.64 nM | 87% |
